Literature values as cited in patent US9937198B2, “Multi-functional composition and preparation method and application thereof” (Suzhou Sciscape Bio-Pharmaceutical Technology Co., Ltd., priority 2013, dated 2018).

Assays:
rats = details: cited from earlier work
[1] = pure validamycin A; cited from earlier work
[2] = tested on: bees and other beneficial insects; details: in vivo; cited from earlier work

OCC1=C[C@@H](N[C@H]2C[C@H](CO)[C@@H](O[C@H]3O[C@@H](CO)[C@H](O)[C@@H](O)[C@@H]3O)[C@H](O)[C@H]2O)[C@H](O)[C@@H](O)[C@@H]1O [Validamycin A, validamycin A]
acute oral toxicity (LD50) in rats (rats): above 20 g/kg
solubility in water [1]: soluble in water
toxicity to bees and other beneficial insects [2]: no toxicity
